1 molecule from ChEMBL document CHEMBL1127143, “New -lactam homologs of penems” (1993) can be followed below.

The term MIC denotes the least concentration at which growth counts as inhibited. A high value points to weaker potency. The term inhibition denotes the drop in the measured response relative to a control, in per cent. High values mean a response far below the control, low ones a response near the control.

For one assay, the system named is Staphylococcus aureus. In words: Minimum inhibitory concentration for the antibacterial activity against Staphylococcus aureus. In kind it is functional.
For another assay, the system named is actinomadura species. In words: Compound was tested for percent inhibition of D,D - Carboxypeptidase from Actinomadura sp. R39 at 100 uM concentration.

Structures are written as SMILES. In brackets after ≈: the same amount, converted by molar mass.

The molecule `CCSC1=C(C(=O)O)N2C(=O)C(NC(=O)Cc3ccccc3)CC2S1` (configuration not stated) gave an MIC against Staphylococcus aureus of 320 µg/mL (≈ 845 µM). Further, the inhibition with actinomadura species was 15%.
